Data as given in publication PMC10994195 (Journal of medicinal chemistry, 2024).
Blank lines part the entries; values can stand above or below the compound they belong to.

Assays:
FmlH = FmlH (Escherichia coli, UniProt A0A0H2V7F6); assay: ELISA of FmlH lectin domain binding with TF antigen as competitive ligand; set-up: species or system uropathogenic Escherichia coli (UPEC); conditions: for loss of activity relative to parent compound I: FmlH ELISA IC50 ratio
Mouse pharmacokinetics = type: in vivo, C3H/HeN mice; conditions: mice, PO
[1] = In vivo pharmacokinetics in mice; conditions: mice plasma PK
[2] = rats; cited from earlier work
[3] = cited from earlier work

SMILES: CC(=O)N[C@H]1[C@H](Oc2cccc(C(F)(F)F)c2-c2cccc(CS(C)(=O)=O)c2)O[C@H](CO)[C@H](O)[C@@H]1O [Compound 9]
loss of activity relative to parent compound I (FmlH): ~ 10 fold

SMILES: CC(=O)N[C@H]1[C@H](Oc2cccc(C(F)(F)F)c2-c2cccc(C(=O)NS(C)(=O)=O)c2)O[C@H](CO)[C@H](O)[C@@H]1O [Compound 11]
loss of activity relative to parent compound I (FmlH): ~ 10 fold

SMILES: CS(=O)(=O)Nc1cccc(-c2ccccc2C[C@@H]2O[C@H](CO)[C@H](O)[C@H](O)[C@H]2F)c1 [Compound 28]
improvement of potency on replacing 2-position OH with F (FmlH; FmlH ELISA, relative to 27): 2 fold

SMILES: CS(=O)(=O)Nc1cccc(-c2ccccc2C[C@@H]2O[C@H](CO)[C@H](O)[C@H](O)[C@H]2[N+](=O)[O-])c1 [Compound 34]
IC50 (FmlH; FmlH ELISA, average of four replicates): all activity against FmlH was eliminated

urine concentration relative to FmlH IC50 (Mouse pharmacokinetics): over 300 fold | urine concentration achieved (Mouse pharmacokinetics; high urine concentration quoted in the conclusion): 61 µM | AUC relative to 67 [1]: ~4 fold
SMILES: CC(=O)N[C@H]1[C@H](Oc2cccc(C(F)(F)F)c2-c2ccc(F)cc2)O[C@H](CO)[C@H](O)[C@@H]1O [Compound 69]

SMILES: CC(=O)N[C@H]1[C@H](Oc2cccc(C(F)(F)F)c2-c2cccc(NS(C)(=O)=O)c2)O[C@H](CO)[C@H](O)[C@@H]1O [I]
oral bioavailability (F) [2]: < 1% | metabolic stability ([3]; SGF, SIF, mouse liver microsomes, blood plasma): good metabolic stability | stability in plasma and simulated gut and intestinal fluids [3]: good stability
